Assay results taken from the NIST ThermoML archive (doi:10.1007/s10765-008-0503-0).

Conditions: Liquid; for viscosity: Vibrating wire viscometry; for mass density: vibrating wire

COCCOC [1,2-dimethoxyethane]
Conditions	mass density [kg/m3]	viscosity [mPa·s]
243.15 K, 100 kPa	919.667	0.8856
243.15 K, 4540 kPa	923.045	0.9166
243.15 K, 9560 kPa	926.586	0.9502
243.15 K, 14590 kPa	928.901	0.9855
243.15 K, 19470 kPa	931.879	1.017
253.15 K, 100 kPa	909.614	0.7464
253.15 K, 4550 kPa	912.595	0.7729
253.15 K, 9550 kPa	915.73	0.7995
253.15 K, 14450 kPa	917.844	0.8296
253.15 K, 19430 kPa	921.699	0.858
263.15 K, 100 kPa	899.206	0.642
263.15 K, 4560 kPa	901.757	0.6618
263.15 K, 9590 kPa	904.482	0.6849
263.15 K, 14590 kPa	908.179	0.7095
263.15 K, 19460 kPa	911.986	0.7337
273.15 K, 100 kPa	887.607	0.5585
273.15 K, 4560 kPa	890.738	0.5759
273.15 K, 9590 kPa	894.412	0.5961
273.15 K, 14550 kPa	898.792	0.6173
273.15 K, 19480 kPa	903.248	0.6392
283.15 K, 100 kPa	876.889	0.4904
283.15 K, 4550 kPa	880.455	0.5056
283.15 K, 9570 kPa	884.621	0.525
283.15 K, 14460 kPa	889.18	0.5458
283.15 K, 19450 kPa	892.89	0.5619
293.15 K, 100 kPa	866.528	0.4341
293.15 K, 4530 kPa	869.991	0.4492
293.15 K, 9560 kPa	875.037	0.4673
293.15 K, 14460 kPa	879.707	0.485
293.15 K, 19450 kPa	883.646	0.5011
303.15 K, 100 kPa	855.111	0.3896
303.15 K, 4540 kPa	859.667	0.4031
303.15 K, 9500 kPa	865.15	0.4197
303.15 K, 14440 kPa	869.454	0.4334
303.15 K, 19440 kPa	873.398	0.4494
313.15 K, 100 kPa	843.765	0.3512
313.15 K, 4540 kPa	848.633	0.3641
313.15 K, 9500 kPa	854.082	0.3784
313.15 K, 14440 kPa	858.578	0.3922
313.15 K, 19420 kPa	863.033	0.4055
323.15 K, 100 kPa	832.929	0.3189
323.15 K, 4560 kPa	838.334	0.3303
323.15 K, 9530 kPa	843.798	0.3433
323.15 K, 14450 kPa	848.464	0.3562
323.15 K, 19460 kPa	852.959	0.3693
333.15 K, 100 kPa	822.133	0.2903
333.15 K, 4550 kPa	827.195	0.3018
333.15 K, 9570 kPa	833.307	0.3129
333.15 K, 14460 kPa	837.525	0.3256
333.15 K, 19430 kPa	842.805	0.3372
343.15 K, 100 kPa	809.48	0.2653
343.15 K, 4540 kPa	815.487	0.2754
343.15 K, 9560 kPa	821.858	0.2868
343.15 K, 14440 kPa	827.359	0.2985
343.15 K, 19420 kPa	832.794	0.3093
353.15 K, 360 kPa	798.071	0.2437
353.15 K, 4560 kPa	803.982	0.2539
353.15 K, 9570 kPa	810.723	0.2642
353.15 K, 14440 kPa	817.205	0.2754
353.15 K, 19420 kPa	822.843	0.2858
363.15 K, 160 kPa	785.42	0.2233
363.15 K, 4560 kPa	792.463	0.233
363.15 K, 9570 kPa	799.914	0.2438
363.15 K, 14440 kPa	806.21	0.2557
363.15 K, 19420 kPa	812.462	0.2641
373.15 K, 200 kPa	772.627	0.2059
373.15 K, 4560 kPa	780.565	0.2157
373.15 K, 9580 kPa	788.637	0.2263
373.15 K, 14440 kPa	795.752	0.2355
373.15 K, 19420 kPa	802.7	0.2457

COCOC [dimethoxymethane]
Conditions	mass density [kg/m3]	viscosity [mPa·s]
243.15 K, 100 kPa	917.773	0.6298
243.15 K, 4400 kPa	921.19	0.651
243.15 K, 9420 kPa	924.889	0.6752
243.15 K, 14450 kPa	928.455	0.7003
243.15 K, 19440 kPa	931.885	0.7258
253.15 K, 100 kPa	905.693	0.5389
253.15 K, 4420 kPa	909.439	0.556
253.15 K, 9410 kPa	913.399	0.5769
253.15 K, 14450 kPa	917.473	0.5975
253.15 K, 19440 kPa	921.171	0.6191
263.15 K, 100 kPa	893.705	0.4697
263.15 K, 4440 kPa	897.611	0.4857
263.15 K, 9440 kPa	901.958	0.5039
263.15 K, 14470 kPa	906.179	0.5215
263.15 K, 19470 kPa	910.144	0.5406
273.15 K, 100 kPa	881.433	0.4145
273.15 K, 4440 kPa	885.755	0.4285
273.15 K, 9440 kPa	890.38	0.4446
273.15 K, 14480 kPa	894.826	0.4615
273.15 K, 19540 kPa	899.081	0.4783
283.15 K, 100 kPa	869.282	0.3685
283.15 K, 4450 kPa	873.902	0.3818
283.15 K, 9430 kPa	878.977	0.3964
283.15 K, 14490 kPa	883.736	0.4114
283.15 K, 19550 kPa	888.33	0.4265
293.15 K, 100 kPa	857.043	0.3303
293.15 K, 4410 kPa	862.006	0.342
293.15 K, 9460 kPa	867.484	0.3559
293.15 K, 14490 kPa	872.625	0.3692
293.15 K, 19550 kPa	877.53	0.3832
303.15 K, 100 kPa	844.252	0.2963
303.15 K, 4450 kPa	849.702	0.3076
303.15 K, 9450 kPa	855.591	0.3199
303.15 K, 14490 kPa	861.24	0.3323
303.15 K, 19550 kPa	866.565	0.345
313.15 K, 160 kPa	831.685	0.2682
313.15 K, 4440 kPa	837.579	0.2785
313.15 K, 9420 kPa	843.933	0.2905
313.15 K, 14450 kPa	849.923	0.3022
313.15 K, 19440 kPa	855.5	0.3137
323.15 K, 190 kPa	818.682	0.2436
323.15 K, 4390 kPa	824.99	0.2532
323.15 K, 9420 kPa	832.095	0.2644
323.15 K, 14460 kPa	838.549	0.2758
323.15 K, 19490 kPa	844.585	0.2866
333.15 K, 210 kPa	805.334	0.2202
333.15 K, 4390 kPa	812.279	0.229
333.15 K, 9410 kPa	819.852	0.2401
333.15 K, 14450 kPa	826.872	0.2504
333.15 K, 19450 kPa	833.322	0.261
343.15 K, 280 kPa	791.705	0.2009
343.15 K, 4430 kPa	799.263	0.2096
343.15 K, 9430 kPa	807.432	0.2203
343.15 K, 14460 kPa	815.084	0.2301
343.15 K, 19460 kPa	822.037	0.24
353.15 K, 360 kPa	777.688	0.1837
353.15 K, 4370 kPa	785.794	0.1922
353.15 K, 9400 kPa	794.895	0.2024
353.15 K, 14450 kPa	803.147	0.2123
353.15 K, 19430 kPa	810.634	0.2217
363.15 K, 430 kPa	763.12	0.1688
363.15 K, 4400 kPa	772.066	0.1767
363.15 K, 9410 kPa	782.127	0.1868
363.15 K, 14450 kPa	791.118	0.1963
363.15 K, 19460 kPa	799.153	0.2059
373.15 K, 550 kPa	748.032	0.1551
373.15 K, 4370 kPa	757.736	0.1628
373.15 K, 9400 kPa	768.901	0.1728
373.15 K, 14450 kPa	778.77	0.1822
373.15 K, 19480 kPa	787.494	0.1914
